The target of one assay is T1, CDK2/CycE (Homo sapiens, UniProt P24941).
T1 construct: purchased ProQinase GmbH (Freiburg, Germany); host or cells: insect cells (Sf9)
Description: CDK2/CycE kinase assay (TR-FRET, 2 mM ATP). Type of assay: biochemical. The settings on record: 2 mM ATP (high ATP); median; read-out: CDK2/CyclinE, 2 mM ATP (high ATP), IC50 (median). In outline: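 Biotin-peptide phosphorylation (0.75 µM substrate, 2 mM ATP final, 25 min, 22 °C) by Sf9-expressed GST-CDK2/GST-CycE, after a 15-min compound pre-binding step. Inhibition scaled between enzyme-free (100%) and uninhibited (0%) wells.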
(In general: In TR-FRET formats the signal depends on donor and acceptor labels being close together.)

Assay [1] relates to CAL-120, human breast adenocarcinoma cells. Description: Proliferation assay CAL-120 (crystal violet, 4 days). The assay is classed as cell-based. The conditions noted are these: Homo sapiens, CAL-120, 96 h, CAL-120 cells, median, read-out: Prolif-CAL-120, IC50-[mol/l] (median). In outline:
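IC50 from a 4-parameter fit of crystal violet absorbance (595 nm), scaled between a day-0 plate (0%) and untreated wells (100%). Cells grown in 10% FCS medium were exposed to test substances at 0.01-10 µmol/L for 4 days, 0.1% DMSO final.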

Assay [2] addresses T2, CDK12 (nuclear staining in CAL-120 cells) (Homo sapiens, UniProt Q9NYV4).
T2 construct: endogenous in cells; host or cells: CAL-120 human breast cancer cells (DSMZ ACC 459)
Description: CDK12 nuclear protein level: immunofluorescence/high content analysis (CAL-120). Type of assay: cell-based. The conditions noted are these: for DC50: CAL-120 cells, 24 h, immunofluorescence, 50% reduction of nuclear CDK12 staining intensity, median, read-out: CDK12 degradation IF, DC50- [mol/l] (median); for (IC50 CDK12 high ATP) to (Degradation DC50 CDK12) ratio: ratio of IC50 CDK12 high ATP kinase assay to DC50 CDK12 degradation (IF, CAL-120). In outline: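 DC50 is the degrader concentration that halves nuclear CDK12 immunofluorescence relative to controls, measured by high-content imaging. CAL-120 cells were exposed to compound for 24 h at 37 °C before PFA fixation, and signal was normalized to DMSO and control wells.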

T2 sequence (Q9NYV4 whole entry): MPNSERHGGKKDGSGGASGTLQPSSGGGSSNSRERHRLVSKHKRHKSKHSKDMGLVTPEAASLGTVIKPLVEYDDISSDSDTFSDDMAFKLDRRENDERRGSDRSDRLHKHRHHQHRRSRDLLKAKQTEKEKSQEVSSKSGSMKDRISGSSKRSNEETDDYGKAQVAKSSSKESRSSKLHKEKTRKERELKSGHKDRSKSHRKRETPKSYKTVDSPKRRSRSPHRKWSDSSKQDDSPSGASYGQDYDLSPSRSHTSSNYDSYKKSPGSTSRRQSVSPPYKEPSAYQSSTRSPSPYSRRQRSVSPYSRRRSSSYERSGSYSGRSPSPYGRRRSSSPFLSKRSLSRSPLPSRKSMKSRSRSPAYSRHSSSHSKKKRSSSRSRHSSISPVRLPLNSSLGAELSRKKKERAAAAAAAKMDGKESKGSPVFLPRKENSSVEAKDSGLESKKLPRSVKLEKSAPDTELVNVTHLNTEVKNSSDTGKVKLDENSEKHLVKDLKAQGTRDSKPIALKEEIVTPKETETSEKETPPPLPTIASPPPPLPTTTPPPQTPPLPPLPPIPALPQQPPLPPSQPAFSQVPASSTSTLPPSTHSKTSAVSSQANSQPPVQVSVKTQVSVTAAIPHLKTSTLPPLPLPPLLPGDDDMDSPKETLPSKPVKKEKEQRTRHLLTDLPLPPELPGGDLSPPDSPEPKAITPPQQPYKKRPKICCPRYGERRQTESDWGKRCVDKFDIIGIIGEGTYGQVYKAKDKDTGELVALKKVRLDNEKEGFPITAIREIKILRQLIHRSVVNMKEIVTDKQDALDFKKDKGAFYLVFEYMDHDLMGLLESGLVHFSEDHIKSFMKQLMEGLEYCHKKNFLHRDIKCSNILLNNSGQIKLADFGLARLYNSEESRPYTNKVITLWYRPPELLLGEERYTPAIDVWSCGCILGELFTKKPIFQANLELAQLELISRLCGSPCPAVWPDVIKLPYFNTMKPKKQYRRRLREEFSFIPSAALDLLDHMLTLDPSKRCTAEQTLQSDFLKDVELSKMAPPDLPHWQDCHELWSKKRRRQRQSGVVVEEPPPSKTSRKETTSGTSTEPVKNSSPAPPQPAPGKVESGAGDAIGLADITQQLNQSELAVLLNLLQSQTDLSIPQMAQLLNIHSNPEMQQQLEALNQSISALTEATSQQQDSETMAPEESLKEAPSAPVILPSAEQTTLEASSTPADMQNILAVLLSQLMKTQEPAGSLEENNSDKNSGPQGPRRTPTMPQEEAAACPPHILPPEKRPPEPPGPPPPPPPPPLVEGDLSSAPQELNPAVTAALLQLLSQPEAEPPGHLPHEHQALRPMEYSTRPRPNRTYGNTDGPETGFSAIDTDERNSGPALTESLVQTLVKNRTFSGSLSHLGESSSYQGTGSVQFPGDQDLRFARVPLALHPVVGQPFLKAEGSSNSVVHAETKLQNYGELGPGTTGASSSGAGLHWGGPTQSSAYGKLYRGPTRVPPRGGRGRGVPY
T2 sequence (O75909 whole entry partner): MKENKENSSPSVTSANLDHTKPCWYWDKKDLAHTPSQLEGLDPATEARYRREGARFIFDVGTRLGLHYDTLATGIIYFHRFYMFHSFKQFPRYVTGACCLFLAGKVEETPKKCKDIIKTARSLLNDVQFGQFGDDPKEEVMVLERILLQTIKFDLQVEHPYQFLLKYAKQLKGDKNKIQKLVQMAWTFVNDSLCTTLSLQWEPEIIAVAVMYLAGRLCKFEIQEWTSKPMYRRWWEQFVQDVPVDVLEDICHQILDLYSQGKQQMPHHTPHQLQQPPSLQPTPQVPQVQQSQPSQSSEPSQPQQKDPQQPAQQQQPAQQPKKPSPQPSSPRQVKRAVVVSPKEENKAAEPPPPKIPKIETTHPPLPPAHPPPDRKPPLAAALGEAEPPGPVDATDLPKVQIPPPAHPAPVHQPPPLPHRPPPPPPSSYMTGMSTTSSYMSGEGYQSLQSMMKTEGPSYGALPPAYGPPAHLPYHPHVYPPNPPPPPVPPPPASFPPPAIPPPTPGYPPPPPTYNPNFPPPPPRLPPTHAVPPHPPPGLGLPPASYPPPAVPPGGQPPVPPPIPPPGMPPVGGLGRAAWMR

Consider `Fc1ccc2[nH]c(CNc3nc(N4CCOCC4)nc4c(CC(F)(F)F)cnn34)nc2c1F` [Example 268, N-[(4,5-difluoro-1H-benzimidazol-2-yl)methyl]-2-(morpholin-4-yl)-8-(2,2,2-trifluoroethyl)pyrazolo[1,5-a][1,3,5]triazin-4-amine], for which the IC50 on CDK2/CycE was more than 20000 nM; in assay [1] it was 5.59 nM. For the same molecule, in assay [2], the DC50 turned out to be 1.9 nM. Further, in assay [2], the “(IC50 CDK12 high ATP) to (Degradation DC50 CDK12) ratio” value is listed as 1120.

In the case of `FC(F)(F)c1cnn2c(NCc3nc4cc(Cl)ccc4[nH]3)nc(N3CCOCC3)nc12` [Example 275, N-[(5-chloro-1H-benzimidazol-2-yl)methyl]-2-(morpholin-4-yl)-8-(trifluoromethyl)pyrazolo[1,5-a][1,3,5]triazin-4-amine], the IC50 on CDK2/CycE was more than 20000 nM. The IC50 in assay [1] is 3.88 nM. For the same molecule, in assay [2], the DC50 is 1.7 nM and the “(IC50 CDK12 high ATP) to (Degradation DC50 CDK12) ratio” value was 57.

As for `N[C@H]1CCN(c2nc(NCc3nc4ccccc4[nH]3)n3ncc(Br)c3n2)C1` [Example 245, 2-[(3S)-3-aminopyrrolidin-1-yl]-N-[(1H-benzimidazol-2-yl)methyl]-8-bromopyrazolo[1,5-a][1,3,5]triazin-4-amine], the IC50 at CDK2/CycE turned out to be 5000 nM. In assay [1], the IC50 worked out at 3.1 nM. In assay [2], the DC50 worked out at 1.49 nM and the “(IC50 CDK12 high ATP) to (Degradation DC50 CDK12) ratio” value is on record as more than 10636.

Consider `Fc1cccc2[nH]c(CNc3nc(N4CCOCC4)nc4c(CC(F)(F)F)cnn34)nc12` [Example 303, N-[(4-fluoro-1H-benzimidazol-2-yl)methyl]-2-(morpholin-4-yl)-8-(2,2,2-trifluoroethyl)pyrazolo[1,5-a][1,3,5]triazin-4-amine], for which, on CDK2/CycE, the IC50 was more than 20000 nM. In addition, the IC50 in assay [1] turned out to be 7.9 nM. Moreover, in assay [2], the DC50 worked out at 11 nM and the “(IC50 CDK12 high ATP) to (Degradation DC50 CDK12) ratio” value was found to be 155.

For `CN1CCN(c2nc(NCc3nc4cc(F)c(Cl)cc4[nH]3)n3ncc(C4CC4)c3n2)CC1` [Example 309, N-[(6-chloro-5-fluoro-1H-benzimidazol-2-yl)methyl]-8-cyclopropyl-2-(4-methylpiperazin-1-yl)pyrazolo[1,5-a][1,3,5]triazin-4-amine], the IC50 on CDK2/CycE is more than 20000 nM. In addition, in assay [1], the IC50 was found to be 4.11 nM. In assay [2], the DC50 was found to be 8.53 nM and the “(IC50 CDK12 high ATP) to (Degradation DC50 CDK12) ratio” value is reported as more than 2346.

As for `NC1CCN(c2nc(NCc3nc4ccccc4[nH]3)n3ncc(Br)c3n2)CC1` [Example 256, 2-(4-aminopiperidin-1-yl)-N-[(1H-benzimidazol-2-yl)methyl]-8-bromopyrazolo[1,5-a][1,3,5]triazin-4-amine], at CDK2/CycE, the IC50 worked out at 5060 nM. Moreover, the IC50 in assay [1] stood at 9.97 nM. In addition, in assay [2], the DC50 was 3.53 nM and the “(IC50 CDK12 high ATP) to (Degradation DC50 CDK12) ratio” value is on record as more than 5662.

For `NC1(C(F)(F)F)CCN(c2nc(NCc3nc4ccccc4[nH]3)n3ncc(Br)c3n2)C1` (centres unmarked) [Example 266, 2-[3-amino-3-(trifluoromethyl)pyrrolidin-1-yl]-N-(1H-benzimidazol-2-ylmethyl)-8-bromo-pyrazolo[1,5-a][1,3,5]triazin-4-amine], the IC50 at CDK2/CycE turned out to be 2100 nM. Moreover, the IC50 in assay [1] was 102 nM. For the same molecule, in assay [2], the DC50 was 52.4 nM and the “(IC50 CDK12 high ATP) to (Degradation DC50 CDK12) ratio” value is given as 66.

Take `Brc1cnn2c(NCc3nc4ccccc4[nH]3)nc(N3C[C@@H]4CN[C@@H]4C3)nc12.O=C(O)C(F)(F)F` [Example 267, trifluoroacetic acid-N-[(1H-benzimidazol-2-yl)methyl]-8-bromo-2-[(1S,5S)-3,6-diazabicyclo[3.2.0]heptan-3-yl]pyrazolo[1,5-a][1,3,5]triazin-4-amine (1/1)]: the IC50 at CDK2/CycE was 16100 nM; in assay [1], 69.4 nM. In assay [2], the DC50 worked out at 31.9 nM. In addition, in assay [2], the “(IC50 CDK12 high ATP) to (Degradation DC50 CDK12) ratio” value is given as more than 627.

As to `Brc1cnn2c(NCc3nc4ccccc4[nH]3)nc(N3C[C@H]4C[C@@H]3CN4)nc12` [Example 269, N-[(1H-benzimidazol-2-yl)methyl]-8-bromo-2-[(1R,4R)-2,5-diazabicyclo[2.2.1]heptan-2-yl]pyrazolo[1,5-a][1,3,5]triazin-4-amine], the IC50 at CDK2/CycE is 4840 nM. Further, the IC50 in assay [1] is 7.31 nM. Besides, in assay [2], the DC50 was 3.33 nM and the “(IC50 CDK12 high ATP) to (Degradation DC50 CDK12) ratio” value was 2588.

For the molecule `CN1CCN(c2nc(NCc3nc4cc(Cl)ccc4[nH]3)n3ncc(C(F)(F)F)c3n2)CC1` [Example 298, N-[(5-chloro-1H-benzimidazol-2-yl)methyl]-2-(4-methylpiperazin-1-yl)-8-(trifluoromethyl)pyrazolo[1,5-a][1,3,5]triazin-4-amine], the IC50 at CDK2/CycE was more than 19500 nM. For the same molecule, the IC50 in assay [1] was found to be 4.05 nM. Further, in assay [2], the DC50 amounted to 4.22 nM and the “(IC50 CDK12 high ATP) to (Degradation DC50 CDK12) ratio” value was 1968.

In the case of `Fc1ccc2[nH]c(CNc3nc(N4CCOCC4)nc4c(C5CC5(F)F)cnn34)nc2c1` (racemic) [Example 286, 8-[(1RS)-2,2-difluorocyclopropyl]-N-[(5-fluoro-1H-benzimidazol-2-yl)methyl]-2-(morpholin-4-yl)pyrazolo[1,5-a][1,3,5]triazin-4-amine], at CDK2/CycE, the IC50 was more than 20000 nM. For the same molecule, the IC50 in assay [1] amounted to 20.8 nM. For the same molecule, in assay [2], the DC50 was 5.38 nM and the “(IC50 CDK12 high ATP) to (Degradation DC50 CDK12) ratio” value is on record as 2107.

As to `Brc1cnn2c(NCc3nc4ccccc4[nH]3)nc(N3C[C@H]4CN[C@H]4C3)nc12.O=C(O)C(F)(F)F` [Example 255, trifluoroacetic acid-N-[(1H-benzimidazol-2-yl)methyl]-8-bromo-2-[(1R,5R)-3,6-diazabicyclo[3.2.0]heptan-3-yl]pyrazolo[1,5-a][1,3,5]triazin-4-amine (1/1)], the IC50 was more than 20000 nM on CDK2/CycE and 32.8 nM in assay [1]. Further, the DC50 in assay [2] is 19.2 nM. For the same molecule, the “(IC50 CDK12 high ATP) to (Degradation DC50 CDK12) ratio” value in assay [2] is given as more than 1044.

As to `c1ccc2[nH]c(CNc3nc(N4C[C@@H]5C[C@H]4CO5)nc4c(C5CC5)cnn34)nc2c1` [Example 254, N-[(1H-benzimidazol-2-yl)methyl]-8-cyclopropyl-2-[(1S,4S)-2-oxa-5-azabicyclo[2.2.1]heptan-5-yl]pyrazolo[1,5-a][1,3,5]triazin-4-amine], the IC50 at CDK2/CycE was more than 20000 nM. Further, the IC50 in assay [1] was 87.7 nM. Moreover, in assay [2], the DC50 is 8.47 nM and the “(IC50 CDK12 high ATP) to (Degradation DC50 CDK12) ratio” value was more than 2361.

Consider `FC1(F)CC1c1cnn2c(NCc3nc4ccccc4[nH]3)nc(N3CCOCC3)nc12` (centres unmarked) [Example 279, N-[(1H-benzimidazol-2-yl)methyl]-8-(2,2-difluorocyclopropyl)-2-(morpholin-4-yl)pyrazolo[1,5-a][1,3,5]triazin-4-amine], for which the IC50 was more than 20000 nM on CDK2/CycE and 17.2 nM in assay [1]. Further, the DC50 in assay [2] worked out at 4.72 nM. In addition, the “(IC50 CDK12 high ATP) to (Degradation DC50 CDK12) ratio” value in assay [2] stood at 2961.

With `Brc1cnn2c(NCc3nc4cccnc4[nH]3)nc(N3CCNCC3)nc12.O=CO` [Example 19, 8-bromo-N-[(3H-imidazo[4,5-b]pyridin-2-yl)methyl]-2-(piperazin-1-yl)pyrazolo[1,5-a][1,3,5]triazin-4-amine formic acid salt], at CDK2/CycE, the IC50 was 11400 nM. In assay [2], the DC50 amounted to 10.9 nM and the “(IC50 CDK12 high ATP) to (Degradation DC50 CDK12) ratio” value worked out at 1056.

Turning to `Brc1cnn2c(NCc3nc4ccncc4[nH]3)nc(N3CCOCC3)nc12` [Example 22, 8-bromo-N-[(3H-imidazo[4,5-c]pyridin-2-yl)methyl]-2-(morpholin-4-yl)pyrazolo[1,5-a][1,3,5]triazin-4-amine], at CDK2/CycE, the IC50 worked out at 15500 nM. In assay [2], the DC50 was determined as 99 nM and the “(IC50 CDK12 high ATP) to (Degradation DC50 CDK12) ratio” value amounted to 40.

As to `Fc1ccc2[nH]c(CNc3nc(N4CCOCC4)nc4c(C(F)(F)F)cnn34)nc2c1` [Example 273, N-[(5-fluoro-1H-benzimidazol-2-yl)methyl]-2-(morpholin-4-yl)-8-(trifluoromethyl)pyrazolo[1,5-a][1,3,5]triazin-4-amine], the IC50 in assay [1] stood at 4.49 nM. Besides, in assay [2], the DC50 came out at 1.44 nM and the “(IC50 CDK12 high ATP) to (Degradation DC50 CDK12) ratio” value came to 512.

As for `CN1CCN(c2nc(NCc3nc4c(F)cccc4[nH]3)n3ncc(C(F)(F)F)c3n2)CC1` [Example 293, N-[(4-fluoro-1H-benzimidazol-2-yl)methyl]-2-(4-methylpiperazin-1-yl)-8-(trifluoromethyl)pyrazolo[1,5-a][1,3,5]triazin-4-amine], the IC50 in assay [1] came to 8.88 nM. In addition, in assay [2], the DC50 was 1.71 nM and the “(IC50 CDK12 high ATP) to (Degradation DC50 CDK12) ratio” value is 3446.

On to `Brc1cnn2c(NCc3ncc(-c4ccccc4)[nH]3)nc(N3CCOCC3)nc12` [Example 23, 8-bromo-2-(morpholin-4-yl)-N-[(5-phenyl-1H-imidazol-2-yl)methyl]pyrazolo[1,5-a][1,3,5]triazin-4-amine], for which, at CDK2/CycE, the IC50 stood at 1410 nM. In assay [2], the DC50 is 3.45 nM and the “(IC50 CDK12 high ATP) to (Degradation DC50 CDK12) ratio” value is recorded as 452.

The record behind these values is patent US20230117034A1, “PYRAZOLOTRIAZINES” (Bayer Aktiengesellschaft, priority 2019, published 2023).
